Values quoted from earlier work, collected in paper PMC9516332 (Frontiers in Oncology, 2022).
Like-named read-outs stand apart in the source and are kept apart here.

Assays:
Conditions in all cases: cited from earlier work
[1] = biological target: T1, panel of 255 wild-type kinases (Homo sapiens, UniProt P52333)
T1 sequence (P52333 1-1124): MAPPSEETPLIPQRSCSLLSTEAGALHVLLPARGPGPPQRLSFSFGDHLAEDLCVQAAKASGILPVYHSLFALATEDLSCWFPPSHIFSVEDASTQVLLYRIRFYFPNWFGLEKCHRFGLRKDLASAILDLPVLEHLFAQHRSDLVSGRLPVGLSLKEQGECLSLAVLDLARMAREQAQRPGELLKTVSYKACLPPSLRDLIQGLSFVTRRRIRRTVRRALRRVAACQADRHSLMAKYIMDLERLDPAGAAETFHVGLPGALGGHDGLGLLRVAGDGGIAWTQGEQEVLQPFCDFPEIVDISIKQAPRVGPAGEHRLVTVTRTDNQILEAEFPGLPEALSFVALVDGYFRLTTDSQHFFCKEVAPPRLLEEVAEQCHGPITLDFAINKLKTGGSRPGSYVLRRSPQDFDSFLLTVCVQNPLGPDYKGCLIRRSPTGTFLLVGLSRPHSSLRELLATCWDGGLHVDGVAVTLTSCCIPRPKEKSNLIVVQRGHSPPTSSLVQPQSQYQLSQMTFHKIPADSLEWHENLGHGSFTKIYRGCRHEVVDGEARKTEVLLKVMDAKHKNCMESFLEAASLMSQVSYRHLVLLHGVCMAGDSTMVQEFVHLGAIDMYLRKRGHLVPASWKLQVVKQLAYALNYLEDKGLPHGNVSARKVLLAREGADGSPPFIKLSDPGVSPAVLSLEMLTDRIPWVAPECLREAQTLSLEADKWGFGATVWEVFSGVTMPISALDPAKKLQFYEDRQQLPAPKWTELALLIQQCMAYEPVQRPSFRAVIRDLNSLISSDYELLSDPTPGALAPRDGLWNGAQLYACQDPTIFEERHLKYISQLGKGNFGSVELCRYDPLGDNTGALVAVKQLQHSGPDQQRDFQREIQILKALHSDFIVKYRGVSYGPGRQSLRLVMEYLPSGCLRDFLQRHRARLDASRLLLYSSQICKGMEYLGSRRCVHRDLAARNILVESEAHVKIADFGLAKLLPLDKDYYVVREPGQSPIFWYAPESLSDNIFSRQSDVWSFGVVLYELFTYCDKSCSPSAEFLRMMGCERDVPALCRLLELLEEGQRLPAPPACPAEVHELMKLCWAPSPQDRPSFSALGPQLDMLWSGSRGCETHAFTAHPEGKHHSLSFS

[2] = biological target: panel of 255 wild-type kinases (Homo sapiens, UniProt Q14680)
[3] = biological target: T2, panel of 255 wild-type kinases (Homo sapiens, UniProt Q9UF33)
T2 sequence (Q9UF33 23-1036): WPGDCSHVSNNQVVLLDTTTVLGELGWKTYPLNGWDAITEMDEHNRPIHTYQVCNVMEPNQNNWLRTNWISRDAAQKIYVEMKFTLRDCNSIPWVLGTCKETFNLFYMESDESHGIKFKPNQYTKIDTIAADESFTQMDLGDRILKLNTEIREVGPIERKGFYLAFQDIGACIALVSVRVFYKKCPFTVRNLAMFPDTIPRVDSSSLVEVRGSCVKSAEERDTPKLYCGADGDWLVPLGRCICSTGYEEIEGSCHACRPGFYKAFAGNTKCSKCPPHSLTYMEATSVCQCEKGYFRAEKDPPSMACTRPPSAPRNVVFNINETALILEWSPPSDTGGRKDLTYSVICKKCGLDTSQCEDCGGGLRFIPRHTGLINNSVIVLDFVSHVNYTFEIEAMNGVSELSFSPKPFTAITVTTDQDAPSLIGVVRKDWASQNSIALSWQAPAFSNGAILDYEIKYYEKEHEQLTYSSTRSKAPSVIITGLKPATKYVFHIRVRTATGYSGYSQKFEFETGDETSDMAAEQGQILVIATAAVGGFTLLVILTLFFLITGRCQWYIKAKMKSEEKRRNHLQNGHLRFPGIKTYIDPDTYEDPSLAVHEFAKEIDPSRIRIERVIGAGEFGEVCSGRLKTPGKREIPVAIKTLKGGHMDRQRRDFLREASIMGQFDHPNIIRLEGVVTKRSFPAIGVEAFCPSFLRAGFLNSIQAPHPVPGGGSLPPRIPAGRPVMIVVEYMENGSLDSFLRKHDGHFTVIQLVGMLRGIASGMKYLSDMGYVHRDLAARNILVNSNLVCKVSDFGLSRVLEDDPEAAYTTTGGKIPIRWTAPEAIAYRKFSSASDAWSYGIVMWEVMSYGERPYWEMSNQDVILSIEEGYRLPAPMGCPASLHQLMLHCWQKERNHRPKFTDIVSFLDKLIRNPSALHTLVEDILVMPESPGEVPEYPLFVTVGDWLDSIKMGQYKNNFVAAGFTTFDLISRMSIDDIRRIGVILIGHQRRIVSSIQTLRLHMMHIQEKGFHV

[4] = biological target: panel of 255 wild-type kinases (Homo sapiens, UniProt Q86V86)
[5] = biological target: panel of 255 wild-type kinases (Homo sapiens, UniProt P48729)
[6] = biological target: panel of 255 wild-type kinases (Homo sapiens, UniProt O96017)
[7] = kinase JAK3, 1 µmol/L single concentration, ref DOI: 10.1158/1535-7163.MCT-18-0877
[8] = MELK, 1 µmol/L single concentration, ref DOI: 10.1158/1535-7163.MCT-18-0877
[9] = kinase EPHA6, 1 µmol/L single concentration, ref DOI: 10.1158/1535-7163.MCT-18-0877
[10] = kinase PIM3, 1 µmol/L single concentration, ref DOI: 10.1158/1535-7163.MCT-18-0877
[11] = kinase CK1α, 1 µmol/L single concentration, ref DOI: 10.1158/1535-7163.MCT-18-0877
[12] = CHK2 kinase assay, 1 µmol/L single concentration, ref DOI: 10.1158/1535-7163.MCT-18-0877
[13] = kinase JAK3, 1 µmol/L single concentration, ref DOI: 10.1371/journal.pone.0092146
[14] = MELK, 1 µmol/L single concentration, ref DOI: 10.1371/journal.pone.0092146
[15] = kinase EPHA6, 1 µmol/L single concentration, ref DOI: 10.1371/journal.pone.0092146
[16] = kinase PIM3, 1 µmol/L single concentration, ref DOI: 10.1371/journal.pone.0092146
[17] = kinase CK1α, 1 µmol/L single concentration, ref DOI: 10.1371/journal.pone.0092146
[18] = CHK2 kinase assay, 1 µmol/L single concentration, ref DOI: 10.1371/journal.pone.0092146

Structure (SMILES) | %-inhibition at 1 µmol/L, JAK3 [1, 7] | %-inhibition, MELK [2, 8] | %-inhibition at 1 µmol/L, EPHA6 [3, 9] | %-inhibition at 1 µmol/L, PIM3 [4, 10] | %-inhibition at 1 µmol/L, CK1α [5, 11] | %-inhibition CHK2 [6, 12] | %-inhibition at 1 µmol/L, JAK3 [1, 13] | %-inhibition, MELK [2, 14] | %-inhibition at 1 µmol/L, EPHA6 [3, 15] | %-inhibition at 1 µmol/L, PIM3 [4, 16] | %-inhibition at 1 µmol/L, CK1α [5, 17] | %-inhibition CHK2 [6, 18] | further results
O=C(c1ccc(F)c(F)c1Nc1ccc(I)cc1F)N1CC(O)([C@@H]2CCCCN2)C1 [cobimetinib] | -3.25% | 2.53% | 1.6% | -0.814% | 2% | -0.103% | – | – | – | – | – | – | –
CC(C)(C)c1nc(-c2cccc(NS(=O)(=O)c3c(F)cccc3F)c2F)c(-c2ccnc(N)n2)s1 [dabrafenib] | – | – | – | – | – | – | 22% | 82% | 88% | 9% | 13% | 7% | –
Cc1cc(Nc2ncc(Cl)c(Nc3ccccc3S(=O)(=O)C(C)C)n2)c(OC(C)C)cc1C1CCNCC1 [ceritinib] | 2.84% | 4.5% | 29% | -0.463% | 7% | 88% | – | – | – | – | – | – | –
CCc1cc2c(cc1N1CCC(N3CCOCC3)CC1)C(C)(C)c1[nH]c3cc(C#N)ccc3c1C2=O [alectinib] | 5.58% | 29% | 0.529% | 52% | 22% | 96% | – | – | – | – | – | – | –
CCCS(=O)(=O)Nc1ccc(F)c(C(=O)c2c[nH]c3ncc(-c4ccc(Cl)cc4)cc23)c1F [vemurafenib] | – | – | – | – | – | – | 10% | 4% | 37% | -5% | -4.34% | 6.32% | –
COc1cc(N2CCC(N3CCN(C)CC3)CC2)ccc1Nc1ncc(Cl)c(Nc2ccccc2P(C)(C)=O)n1 [brigatinib] | – | – | – | – | – | – | – | – | – | – | – | – | %-inhibition at 1 µmol/L, JAK3 [1]: 97%; %-inhibition, MELK [2]: 49%; %-inhibition at 1 µmol/L, EPHA6 [3]: 20%; %-inhibition at 1 µmol/L, PIM3 [4]: 5.69%; %-inhibition at 1 µmol/L, CK1α [5]: 11%; %-inhibition CHK2 [6]: 96%
CC(=O)Nc1cccc(-n2c(=O)n(C3CC3)c(=O)c3c(Nc4ccc(I)cc4F)n(C)c(=O)c(C)c32)c1 [trametinib] | – | – | – | – | – | – | 6% | -0.588% | -2.51% | 8.44% | 3% | -5% | –
CC#CC(=O)N1CCC[C@H]1c1nc(-c2ccc(C(=O)Nc3ccccn3)cc2)c2c(N)nccn12 [acalabrutinib] | -1% | -0.54% | -2.37% | -0.0376% | 10% | -6% | – | – | – | – | – | – | –
C=CC(=O)Nc1cc(Nc2nccc(-c3cn(C)c4ccccc34)n2)c(OC)cc1N(C)CCN(C)C [osimertinib] | 97% | 2.22% | 2.33% | 15% | 4.46% | 6% | – | – | – | – | – | – | –
CO[C@@H]1[C@H](N(C)C(=O)c2ccccc2)C[C@H]2O[C@]1(C)n1c3ccccc3c3c4c(c5c6ccccc6n2c5c31)C(=O)NC4 [midostaurin] | 100% | 95% | 19% | 71% | 3.51% | 36% | – | – | – | – | – | – | –
C=CC(=O)N1CCC[C@@H](n2nc(-c3ccc(Oc4ccccc4)cc3)c3c(N)ncnc32)C1 [ibrutinib] | 91% | 8% | 93% | -0.241% | -2% | 14% | – | – | – | – | – | – | –
C[C@@H](Oc1cc(-c2cnn(C3CCNCC3)c2)cnc1N)c1c(Cl)ccc(F)c1Cl [crizotinib] | – | – | – | – | – | – | 77% | 5.47% | 100% | -4% | -1.36% | 9% | –
